Experimental data as given in patent publication US20090252708A1, “Biotherapeutic compositions comprising probiotic escherichia coli and uses thereof” (Biobalance LLC, priority 2006, published 2009).

Key:
[1] = system: individual isolates of the aerobic and facultative gram positive and gram negative flora; assay: Metronidazole ex vivo on fecal isolates; format: cell-based; conditions: ex vivo at 50 μg/ml
DSS-induced colitis = assay: Acute DSS-induced colitis in mice: DAI, body weight, stools, colon length and weight, tolerability; format: in vivo, C57BL/6 mice; conditions: for DAI (table title: DAT Time Course Data): DSS days 7-13; for mice with weight loss: weight loss defined as >1%
Description: Mice were dosed once daily for a period of 13 days by oro-gastric gavage with a 20 gauge, one-inch long needle (Popper & Sons, New Hyde Park, N.Y.). Dosages comprised either 40 mg/kg dose of metronidazole or 5×10^9 CFU/ml probiotic solution. A 0.6% saline solution was administered as a control.
Disease Activity Indices (DAIs) were determined either daily or on alternate days, by evaluation of stool consistency and occult blood in the stool and weight loss on a standardized severity scale, as shown in Table 1 (Murthy, 1993).
Disease Activity Index (DAI) Calculation: The individual scores for weight loss, stool consistency, and occult blood/bleeding are determined, and divided by 3 to determine a mean DAI for the mouse. For example, if an animal lost 12% of the initial body weight [score=3], had evidence of diarrhea [score=4], and evidence of gross rectal bleeding [score=4], the mean DAI would be 3±4±4=11/3=3.7
In Example 3, weight loss was not very evident in the DSS-treated mice. Therefore, a modified DAI calculation was used. The modfied DAIs were calculated similarly to the DAIs of Table 1, but only the stool consistency and occult blood components were used for this determination.
Colitis was then induced by providing the mice with a solution of 2% DSS (w/v) dissolved in the filtered water for days 7 to 13 of the study. One group of mice received water without DSS. Water consumption and body weight were recorded throughout the study.
(§1) On day 13 of the study, animals were euthanized by exposure to carbon dioxide. The colon was rapidly removed and the total colon length was determined to the nearest 0.1 cm. Typically, a 2.5 cm segment of distal colon was fixed in 10% buffered formalin, for a subsequent histological evaluation (see below). The adjacent 2.5 cm segment of colon was weighed and then frozen in liquid nitrogen. This segment of colon was used for the evaluation of colonic MPO, as well as colonic cytokine levels.
Control mice received 0.6% saline.

IFN-γ = assay: Colonic cytokine ELISA in DSS colitis: IFN-γ; format: in vivo, C57BL/6 mice; conditions: day 13, M-17 5×10^9 CFU/ml, metronidazole 40 mg/kg
Description: as §1
(§2) The supernatant fraction from the colonic homogenate (see above) was aliquoted into appropriate test tubes and frozen at −70° C. Subsequently, the supernatants were used to measure relevant pro-inflammatory cytokines [e.g., IFN-γ, IL-1β, TNF-α, IL-12] using commercially available mouse ELISA kits (Fitzpatrick 2000). The data was typically expressed as pg/2.5 cm of colon.

TNF-α, IL-1β and IL-6 = assay: RAW 264.7 macrophages: cytokine secretion, cytokines not told apart; format: cell-based, mouse; conditions: metronidazole 50 μg/ml; heat-killed M-17 1×10^8 CFU/ml; conditioned media 10% (v/v)
Description: The RAW 264.7 mouse macrophage cell line was obtained from American Type Culture Collection (ATCC). RAW 264.7 cells were grown in Dulbecco's Modified Eagle's Medium (DMEM) containing 10% FBS (Fetal Bovine Serum). The lipopolysaccharide (LPS) stimulation studies were conducted at a cell density of 2×10^6/ml. […] For the NF-κB p65 measurement, nuclear extracts were obtained from cells either immediately (0 hours) or 3 hours after LPS-stimulation. A protein determination of the nuclear extracts was done with the Bio-Rad protein assay (Bio-Rad Laboratories). For the p65 analysis, 10 μg of protein was utilized per sample. The nuclear binding of p65 was measured with the TransAM™ NF-κB p65 assay kit, according to the manufacturer's instructions.
For the cytokine secretion experiments, after 0 or 4 hours of LPS exposure, the culture medium was collected for the measurement of cytokines (TNF-α, IL-1β and IL-6) by ELISA (Pierce-Endogen), according to the manufacturer's directions. […] The media was then collected and centrifuged at 10,000 RPM for 10 minutes. Next, the CM was passed through a 0.22 micron filter prior to use in cytokine secretion experiments. […] The pellet was then resuspended in a sufficient quantity of saline to achieve a final concentration of 1×10^8 CFU/ml. […] In some experiments, we also evaluated whether metronidazole ([…]) could inhibit cytokine secretion.

E. coli ATCC 202226 = assay: Kirby-Bauer disc diffusion; format: cell-based, Escherichia coli; conditions: 50 μg metronidazole paper disc, Mueller-Hinton Agar, overnight
Description: The Kirby-Bauer disc diffusion method was used to determine the relative sensitivity of E. coli ATCC 202226 to metronidazole (Bauer, 1966). Five colonies of E. coli ATCC 202226 were picked from trypticase soy agar (TSA) using a sterile inoculation loop and suspended in trypticase soy broth (TSB). The TSB culture was grown for 6 hours at 37° C./200 rpm. This culture was diluted in TSB to match a 0.5 McFarland turbidity standard prior to saturating a sterile cotton swab and streaking the culture onto the surface of a Mueller-Hinton Agar plate. After allowing the surface of the plate to dry, a 50 μg metronidazole paper disc (Oxoid) was placed on the lawn. The plate was incubated overnight and the zone of inhibition was recorded.

colonic MPO = assay: Colonic myeloperoxidase (TMB method) in DSS colitis; format: in vivo, C57BL/6 mice; conditions: day 13, M-17 5×10^9 CFU/ml, metronidazole 40 mg/kg
Description: as §1
The 2.5 segment of colon was homogenized for about 30 seconds in 0.5 ml of molecular biology grade distilled water, using a hand-held tissue homogenizer (TissueMiser) from Fisher Scientific (Pittsburgh, Pa.). The homogenate was then centrifuged at 10,000 RPM at 4° C. for 15 minutes. The pellet was resuspended in hexadecyltrimethylammonium bromide (HTAB) buffer (pH 6.0), for the measurement of colonic MPO. MPO was assayed by the tetramethylbenzidine (TMB) method (Fitzpatrick, 2000).

IL-1β = assay: Colonic cytokine ELISA in DSS colitis: IL-1β; format: in vivo, C57BL/6 mice; conditions: day 13, M-17 5×10^9 CFU/ml, metronidazole 40 mg/kg
Description: as §1, §2

IL-6 = assay: Colonic cytokine ELISA in DSS colitis: IL-6; format: in vivo, C57BL/6 mice; conditions: day 13, M-17 5×10^9 CFU/ml, metronidazole 40 mg/kg
Description: as §1, §2

IL-10 = assay: Colonic cytokine ELISA in DSS colitis: IL-10; format: in vivo, C57BL/6 mice; conditions: day 13, M-17 5×10^9 CFU/ml, metronidazole 40 mg/kg
Description: as §1, §2

[2] = after single, intravenous infusion; cited from earlier work
IL-12 = assay: Colonic cytokine ELISA in DSS colitis: IL-12; format: in vivo, C57BL/6 mice; conditions: day 13, M-17 5×10^9 CFU/ml, metronidazole 40 mg/kg
Description: as §1, §2

[3] = system: distal colon histological damage; assay: Colonic histology score in DSS colitis; format: in vivo, C57BL/6 mice; conditions: day 13, M-17 5×10^9 CFU/ml, metronidazole 40 mg/kg
Description: Distal colonic specimens were processed by standard methods and embedded in paraffin by the Histology core facility at the Penn State University College of Medicine. Microscope slides were coded. Using coded hematoxylin-eosin H&E slides (1 slide per mouse) from the distal colon, colonic histology scores were determined from six different areas on the slide (Williams, 2001; Krieglstein, 2001). A mean total histology score value was calculated for each mouse.
Total Histology Scores were determined by multiplying the percent involvement for each of the 3 different histological features by the area of involvement. Using this scoring system, the minimal score=0 and the maximal score=40. The percent involvement was determined with a 25 mm ocular grid attached to an Olympus CH light microscope. The histological evaluation was performed at a 400× magnification.

[4] = day 13, M-17 5×10^9 CFU/ml, metronidazole 40 mg/kg, DSS

Cc1ncc([N+](=O)[O-])n1CCO [metronidazole, 1-(beta-hydroxyethyl)-2-methyl-5-nitroimidazole]
inhibition of individual isolates [1]: did not inhibit
reduction in mean DAI score compared with DSS-treated mice that received vehicle (DSS-induced colitis; day 13, M-17 5×10^9 CFU/ml, metronidazole 40 mg/kg): 47.4%
Colon length (DSS-induced colitis; [4]): 6.8±0.2 cm
Colon wt. (DSS-induced colitis; [4]): 70 ± 3 mg/2.5 cm
Colon length (DSS-induced colitis; day 13, M-17 5×10^9 CFU/ml, metronidazole 40 mg/kg, DSS, listed as Metro): 6.8 ± 0.2 cm
Modified DAI (0-4) (DSS-induced colitis; day 13, stool consistency and occult blood only, M-17 5×10^9 CFU/ml, metronidazole 40 mg/kg): 1.0 ± 0.2
DAI (table title: DAT Time Course Data) (DSS-induced colitis; study day 0, M-17 5×10^9 CFU/ml, metronidazole 40 mg/kg): 0 ± 0
DAI (table title: DAT Time Course Data) (DSS-induced colitis; study day 2, M-17 5×10^9 CFU/ml, metronidazole 40 mg/kg): 0 ± 0
DAI (table title: DAT Time Course Data) (DSS-induced colitis; study day 4, M-17 5×10^9 CFU/ml, metronidazole 40 mg/kg): 0.3 ± 0.2
DAI (table title: DAT Time Course Data) (DSS-induced colitis; study day 6, M-17 5×10^9 CFU/ml, metronidazole 40 mg/kg): 0.2 ± 0.1
DAI (table title: DAT Time Course Data) (DSS-induced colitis; study day 8, M-17 5×10^9 CFU/ml, metronidazole 40 mg/kg): 0.1 ± 0.1
DAI (table title: DAT Time Course Data) (DSS-induced colitis; study day 10, M-17 5×10^9 CFU/ml, metronidazole 40 mg/kg): 0.7 ± 0.2
DAI (table title: DAT Time Course Data) (DSS-induced colitis; study day 12, M-17 5×10^9 CFU/ml, metronidazole 40 mg/kg): 0.6 ± 0.2\
DAI (table title: DAT Time Course Data) (DSS-induced colitis; study day 13, M-17 5×10^9 CFU/ml, metronidazole 40 mg/kg): 1.0 ± 0.2\
mice with weight loss (DSS-induced colitis; DSS-phase (days 7-13)): 30%
mice with weight loss (DSS-induced colitis; figures given before those of the DSS-phase): 50%
IFN-γ (IFN-γ): 56 ± 28 pg/2.5 cm
LPS-stimulated cytokine secretion (TNF-α, IL-1β and IL-6): did not reduce
zone of inhibition (E. coli ATCC 202226): No zone of inhibition
MPO (colonic MPO): 4.3 ± 1.0 U/2.5 cm
IL-1β (IL-1β): 359 ± 85 pg/2.5 cm
IL-6 (IL-6): 372 ± 75 pg/2.5 cm
IL-10 (IL-10): 91 ± 7 pg/2.5 cm
half-life [2]: 7.3 ± 1.0 h
IL-12 (IL-12): 32 ± 2 pg/2.5 cm
Histology Score (0-40) [3]: 12.4 ± 0.9
